Measurements as given in ChEMBL document CHEMBL1201862, “PubChem BioAssay data set” (2004).
The source made the active and inactive calls.

Key:
[1] = biological target: T1, Short transient receptor potential channel 4 (Mus musculus, UniProt Q9QUQ5); assay: mouse TRPC4 channel inhibitors, dose response, cell-based, HEK293 TRPC4/mu-opioid, Fluo-4 calcium (AID 434942); type: functional;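 further: potency of inhibitors blocking the TRPC4 calcium response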
T1 sequence (Q9QUQ5 whole entry): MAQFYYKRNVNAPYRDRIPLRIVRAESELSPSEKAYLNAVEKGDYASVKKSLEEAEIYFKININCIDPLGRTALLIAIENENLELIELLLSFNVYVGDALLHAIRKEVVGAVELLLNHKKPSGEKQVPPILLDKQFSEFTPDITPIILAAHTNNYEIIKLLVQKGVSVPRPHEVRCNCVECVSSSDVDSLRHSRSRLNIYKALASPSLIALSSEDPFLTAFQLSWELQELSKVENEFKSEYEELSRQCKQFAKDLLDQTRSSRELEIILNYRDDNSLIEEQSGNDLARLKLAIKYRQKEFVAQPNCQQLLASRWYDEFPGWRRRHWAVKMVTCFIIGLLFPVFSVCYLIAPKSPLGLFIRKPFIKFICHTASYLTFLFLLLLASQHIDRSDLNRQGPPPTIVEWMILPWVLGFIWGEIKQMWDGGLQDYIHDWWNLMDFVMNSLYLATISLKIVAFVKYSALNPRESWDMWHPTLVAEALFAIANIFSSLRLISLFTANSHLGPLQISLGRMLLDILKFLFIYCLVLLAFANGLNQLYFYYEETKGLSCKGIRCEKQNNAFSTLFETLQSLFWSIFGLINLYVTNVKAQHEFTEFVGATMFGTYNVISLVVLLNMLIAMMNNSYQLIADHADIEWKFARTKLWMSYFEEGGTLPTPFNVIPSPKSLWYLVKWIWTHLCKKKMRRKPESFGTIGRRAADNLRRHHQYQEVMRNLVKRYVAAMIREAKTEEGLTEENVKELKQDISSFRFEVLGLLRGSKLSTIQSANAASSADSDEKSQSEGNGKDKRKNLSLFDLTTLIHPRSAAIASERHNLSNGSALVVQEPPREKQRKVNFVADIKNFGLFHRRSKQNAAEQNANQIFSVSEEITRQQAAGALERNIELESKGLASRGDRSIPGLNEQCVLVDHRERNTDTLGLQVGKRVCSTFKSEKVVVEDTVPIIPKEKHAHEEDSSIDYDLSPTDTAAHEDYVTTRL

[2] = biological target: Glyceraldehyde-3-phosphate dehydrogenase (Homo sapiens, UniProt P04406)
[3] = THP-1 cell cytotoxicity, dose response, cytotoxicity control for non-replicating M. tuberculosis project (AID 489025); type: functional
[4] = test system: HEK293; assay: inhibitors of LMP1-driven NF-kB reporter, dose response, cell-based, HEK293, luciferase, cherry-pick (AID 588343); type: functional; settings: Homo sapiens
[5] = biological target: T2, RNA-binding protein pos-1 (Caenorhabditis elegans, UniProt G5EF15); assay: inhibitors of POS-1/mex-3 RNA binding, dose response, biochemical, fluorescence polarization (AID 1964);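 further: purified POS-1 fused to maltose binding protein made in E. coli; potency of compounds blocking POS-1 binding to fluorescent RNA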
T2 sequence (G5EF15 whole entry): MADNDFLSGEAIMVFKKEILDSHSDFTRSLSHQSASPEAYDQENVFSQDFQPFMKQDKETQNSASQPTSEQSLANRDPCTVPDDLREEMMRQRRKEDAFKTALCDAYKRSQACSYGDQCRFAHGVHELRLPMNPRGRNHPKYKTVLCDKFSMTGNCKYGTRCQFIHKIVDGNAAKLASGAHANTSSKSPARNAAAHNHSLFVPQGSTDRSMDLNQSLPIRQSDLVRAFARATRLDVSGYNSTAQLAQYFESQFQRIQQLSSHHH

[6] = biological target: T3, Zinc finger protein mex-5 (Caenorhabditis elegans, UniProt Q9XUB2); assay: MEX-5/TCR-2 RNA interaction inhibitors, dose response, biochemical, C. elegans, fluorescence polarization (AID 1960)
T3 sequence (Q9XUB2 whole entry): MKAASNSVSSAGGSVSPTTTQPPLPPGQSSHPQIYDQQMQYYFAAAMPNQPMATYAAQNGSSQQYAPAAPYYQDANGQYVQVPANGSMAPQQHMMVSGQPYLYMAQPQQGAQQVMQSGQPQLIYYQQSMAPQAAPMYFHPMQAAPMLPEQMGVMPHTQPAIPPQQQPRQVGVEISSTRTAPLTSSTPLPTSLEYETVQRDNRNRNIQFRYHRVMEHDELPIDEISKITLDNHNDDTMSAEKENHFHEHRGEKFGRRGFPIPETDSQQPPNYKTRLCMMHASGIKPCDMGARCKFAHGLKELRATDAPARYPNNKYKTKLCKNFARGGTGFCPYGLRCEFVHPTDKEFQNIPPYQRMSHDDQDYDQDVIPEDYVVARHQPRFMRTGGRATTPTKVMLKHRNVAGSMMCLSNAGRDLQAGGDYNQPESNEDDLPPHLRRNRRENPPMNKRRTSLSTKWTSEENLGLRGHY

[7] = biological target: Genome polyprotein (dengue virus type 2, UniProt P29990); assay: Dengue-2 NS5 methyltransferase inhibitors, primary screen, biochemical, confirmation dose response (AID 588689); type: functional
[8] = NIH-3T3 fibroblast cytotoxicity, dose response, cytotoxicity control, cell-based, fluorescence, Alamar Blue, secondary assay (AID 2327); type: functional;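 further: NIH-3T3 mouse fibroblasts cultured with fluconazole at 8 µg/mL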
[9] = test system: Streptococcus sp. 'group A'; assay: growth inhibition of control SK(-) GAS strain, dose response, counter-screen for streptokinase expression inhibitor project, luminescence, kanamycin, BacTiterGlo, confirmation (AID 1900); type: functional, organism-based
[10] = test system: BJ; assay: cytotoxicity toward BJ-TERT fibroblasts, dose response, cell-based, RAS-independent, luminescence (AID 1933); type: functional; settings: Homo sapiens
[11] = biological target: T4, Streptokinase A (Streptococcus pyogenes serotype M1, UniProt P10520); assay: S. pyogenes streptokinase expression inhibitors, potency, dose response, plasminogen activation absorbance, OD405 (AID 1914); type: functional, Streptococcus pyogenes M1 GAS;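 further: secreted streptokinase activity via plasminogen activation per viability signal from cell pellet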
T4 sequence (P10520 whole entry): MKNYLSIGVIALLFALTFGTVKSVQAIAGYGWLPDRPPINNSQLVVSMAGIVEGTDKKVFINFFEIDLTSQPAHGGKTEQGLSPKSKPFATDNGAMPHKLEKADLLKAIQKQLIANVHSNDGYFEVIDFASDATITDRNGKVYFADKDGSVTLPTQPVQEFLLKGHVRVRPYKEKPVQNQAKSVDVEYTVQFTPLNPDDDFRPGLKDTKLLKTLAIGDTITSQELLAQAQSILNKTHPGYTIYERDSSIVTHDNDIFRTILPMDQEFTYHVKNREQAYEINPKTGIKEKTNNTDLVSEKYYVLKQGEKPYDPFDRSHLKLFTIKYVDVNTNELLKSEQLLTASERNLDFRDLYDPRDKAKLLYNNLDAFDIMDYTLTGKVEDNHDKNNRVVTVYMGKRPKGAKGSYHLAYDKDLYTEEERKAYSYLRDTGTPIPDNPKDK

[12] = test system: BJ; assay: cells; type: functional, cell-based; settings: Homo sapiens
[13] = biological target: Large T antigen (Simian virus 40, UniProt P03070); type: functional, Betapolyomavirus macacae;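 further: Confirmatory-stage PubChem screen for compounds that inhibit SV40 T antigen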
[14] = cytotoxicity toward DRD oncogenic fibroblasts, dose response, cell-based, non-viral oncogenic, luminescence (AID 1934); type: functional; settings: Homo sapiens
[15] = test system: Streptococcus; assay: Group A Streptococcus viability loss, dose response, counter-screen for streptokinase expression inhibitor project, luminescence, BacTiterGlo (AID 1915); type: functional, organism-based;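 further: potency for reduction of bacterial viability or growth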
[16] = biological target: Heat shock protein HSP 90-alpha (Homo sapiens, UniProt P07900); type: functional, organism-based
[17] = test system: INS1; assay: beta cell apoptosis inhibitors, cytokine rescue, dose response, luminescence, retest (AID 449756); type: functional, cell-based; settings: Rattus norvegicus;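 further: cell death triggered by IL-1 beta plus TNF-alpha plus IFN-gamma mixture; protective hits raise ATP signal compared with cytokine alone wells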
[18] = biological target: Cytochrome P450 3A4 (Homo sapiens, UniProt P08684); settings: Potency;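 further: confirmatory qHTS run detecting inhibitors and substrates of CYP3A4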
[19] = test system: Vero; assay: Vero cell cytotoxicity, cytotoxicity control for flavivirus capping enzyme inhibitors (AID 588742); type: functional; settings: Chlorocebus sabaeus
[20] = biological target: T5, Polyadenylate-binding protein 1 (Homo sapiens, UniProt P11940); assay: PABP1 MLLE–PAM2 interaction inhibitors, dose response, miRNA deadenylation inhibitor project, biochemical, fluorescence polarization, Cy5-PAM2 peptide, secondary (AID 602260); type: functional; settings: read-out: IC50_Mean
[21] = biological target: T5, Polyadenylate-binding protein 1; assay: PABP1 MLLE–PAM2 binding inhibitor potency, dose response, biochemical, fluorescence polarization, FITC-PAM2 peptide (AID 602259); type: functional; settings: read-out: IC50_Mean
[22] = inhibitors of intracellular T. cruzi replication, confirmation, NIH3T3 host cells, beta-gal luminescence (AID 2044); type: functional, cell-based;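 further: intracellular parasites grown in NIH/3T3 mouse fibroblasts as host cells; luminescent beta-galactosidase reporter signal from transgenic T. cruzi replicating inside host cells; inhibitors lower the luminescence signal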
[23] = cytotoxicity toward NIH3T3 fibroblasts, dose response, counter-screen, cell-based, ATP luminescence, mouse fibroblasts (AID 2010); type: functional;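 further: cells exposed to compound for about 90 hours before reading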

Sequence of Cytochrome P450 3A4 (P08684 whole entry): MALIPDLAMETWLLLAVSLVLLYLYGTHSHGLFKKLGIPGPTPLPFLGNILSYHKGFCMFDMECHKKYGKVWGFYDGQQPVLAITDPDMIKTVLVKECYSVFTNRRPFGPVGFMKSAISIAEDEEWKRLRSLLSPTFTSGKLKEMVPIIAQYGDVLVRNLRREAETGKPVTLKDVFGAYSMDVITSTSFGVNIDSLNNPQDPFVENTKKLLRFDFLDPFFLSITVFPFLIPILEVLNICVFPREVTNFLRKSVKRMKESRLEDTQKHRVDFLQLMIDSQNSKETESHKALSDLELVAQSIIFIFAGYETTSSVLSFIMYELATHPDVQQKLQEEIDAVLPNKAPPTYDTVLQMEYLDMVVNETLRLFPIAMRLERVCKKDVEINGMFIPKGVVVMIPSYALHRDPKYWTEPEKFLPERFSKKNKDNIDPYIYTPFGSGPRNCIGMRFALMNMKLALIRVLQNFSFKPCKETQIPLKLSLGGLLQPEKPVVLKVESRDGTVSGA
Sequence of Genome polyprotein (P29990 2492-3391 limits assumed): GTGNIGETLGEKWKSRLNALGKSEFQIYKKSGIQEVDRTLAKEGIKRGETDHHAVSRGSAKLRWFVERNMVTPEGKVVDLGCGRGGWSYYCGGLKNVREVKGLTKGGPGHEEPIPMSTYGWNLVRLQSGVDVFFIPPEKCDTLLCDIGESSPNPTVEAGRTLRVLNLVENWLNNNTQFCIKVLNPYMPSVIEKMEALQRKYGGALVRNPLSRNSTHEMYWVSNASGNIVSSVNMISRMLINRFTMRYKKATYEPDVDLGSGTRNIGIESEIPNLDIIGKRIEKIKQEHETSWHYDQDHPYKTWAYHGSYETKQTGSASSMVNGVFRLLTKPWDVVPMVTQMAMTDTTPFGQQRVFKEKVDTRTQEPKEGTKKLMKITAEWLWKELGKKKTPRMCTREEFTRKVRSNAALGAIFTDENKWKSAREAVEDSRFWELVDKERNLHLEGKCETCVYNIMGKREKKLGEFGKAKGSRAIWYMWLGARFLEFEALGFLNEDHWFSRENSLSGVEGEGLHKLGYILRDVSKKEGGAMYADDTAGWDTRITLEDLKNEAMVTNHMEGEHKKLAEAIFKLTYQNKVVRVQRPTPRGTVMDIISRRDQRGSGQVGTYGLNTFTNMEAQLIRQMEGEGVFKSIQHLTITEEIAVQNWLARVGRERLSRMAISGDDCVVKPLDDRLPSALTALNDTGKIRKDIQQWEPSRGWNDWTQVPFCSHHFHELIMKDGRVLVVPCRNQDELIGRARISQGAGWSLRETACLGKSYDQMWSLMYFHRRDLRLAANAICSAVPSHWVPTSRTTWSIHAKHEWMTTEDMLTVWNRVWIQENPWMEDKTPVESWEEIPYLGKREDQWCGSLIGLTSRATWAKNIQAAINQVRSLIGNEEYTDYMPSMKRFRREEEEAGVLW
Sequence of Glyceraldehyde-3-phosphate dehydrogenase (P04406 whole entry): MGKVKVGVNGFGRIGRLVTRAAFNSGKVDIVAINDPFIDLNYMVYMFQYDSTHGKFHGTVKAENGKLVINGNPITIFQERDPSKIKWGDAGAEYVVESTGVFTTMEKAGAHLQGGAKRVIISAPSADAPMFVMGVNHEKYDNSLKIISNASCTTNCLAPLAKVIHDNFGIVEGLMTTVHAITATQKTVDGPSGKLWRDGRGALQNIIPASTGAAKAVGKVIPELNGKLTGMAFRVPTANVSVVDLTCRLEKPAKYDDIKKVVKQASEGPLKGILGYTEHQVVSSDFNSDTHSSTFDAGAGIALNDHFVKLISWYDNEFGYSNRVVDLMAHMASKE
T5 sequence (P11940 whole entry): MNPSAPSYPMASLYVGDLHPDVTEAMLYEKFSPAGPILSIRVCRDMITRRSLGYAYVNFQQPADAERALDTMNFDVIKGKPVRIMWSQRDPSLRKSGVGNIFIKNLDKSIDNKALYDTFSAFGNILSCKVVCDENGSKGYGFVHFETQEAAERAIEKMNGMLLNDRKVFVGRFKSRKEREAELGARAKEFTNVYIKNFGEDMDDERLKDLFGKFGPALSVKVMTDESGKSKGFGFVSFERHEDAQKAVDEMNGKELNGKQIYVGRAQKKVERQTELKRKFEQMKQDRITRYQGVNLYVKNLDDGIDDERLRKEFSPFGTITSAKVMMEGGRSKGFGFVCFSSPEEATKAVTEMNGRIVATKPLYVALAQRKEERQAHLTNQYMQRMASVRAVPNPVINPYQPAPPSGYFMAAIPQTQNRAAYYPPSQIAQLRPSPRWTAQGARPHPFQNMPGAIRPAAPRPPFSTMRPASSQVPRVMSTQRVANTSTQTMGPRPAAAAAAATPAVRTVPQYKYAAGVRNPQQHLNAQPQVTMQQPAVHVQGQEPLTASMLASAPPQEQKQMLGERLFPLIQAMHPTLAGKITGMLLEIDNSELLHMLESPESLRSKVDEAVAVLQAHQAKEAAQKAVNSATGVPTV
Sequence of Large T antigen (P03070 whole entry): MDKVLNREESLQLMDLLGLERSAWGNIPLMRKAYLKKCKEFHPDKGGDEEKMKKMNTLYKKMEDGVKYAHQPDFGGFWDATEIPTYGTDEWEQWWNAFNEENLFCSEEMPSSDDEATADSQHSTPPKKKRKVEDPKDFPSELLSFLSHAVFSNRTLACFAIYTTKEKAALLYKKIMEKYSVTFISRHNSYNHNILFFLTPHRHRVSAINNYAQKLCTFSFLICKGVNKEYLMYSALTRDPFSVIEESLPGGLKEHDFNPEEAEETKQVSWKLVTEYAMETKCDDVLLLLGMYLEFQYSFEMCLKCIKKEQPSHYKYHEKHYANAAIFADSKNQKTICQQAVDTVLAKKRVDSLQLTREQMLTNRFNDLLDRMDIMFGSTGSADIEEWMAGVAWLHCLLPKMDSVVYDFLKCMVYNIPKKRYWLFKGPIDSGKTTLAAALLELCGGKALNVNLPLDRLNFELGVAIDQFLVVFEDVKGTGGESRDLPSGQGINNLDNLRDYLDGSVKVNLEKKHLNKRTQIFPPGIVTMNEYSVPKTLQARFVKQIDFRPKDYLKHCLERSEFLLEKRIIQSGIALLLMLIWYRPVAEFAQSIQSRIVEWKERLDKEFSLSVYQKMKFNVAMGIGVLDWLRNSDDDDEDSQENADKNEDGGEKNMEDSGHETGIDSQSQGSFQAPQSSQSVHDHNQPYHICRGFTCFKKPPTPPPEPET

Cc1cccn2cc(-c3c[nH]c4ccccc34)nc12
EC50 [1]: 5.96 µM (active)

CC1CC(C)(C)NCCNC(C)CC(C)(C)NCCN1 (stereo not drawn)
IC50 [2]: > 10 µM (inconclusive)

Cc1ccc(CNC(C)c2ccccc2)cc1 (stereo not drawn)
EC50 [1]: 6.68 µM (active)

Cc1nc(Cl)nc(N(C)c2ccccc2)c1[N+](=O)[O-]
CC50 [3]: 22.9 µM (active) | EC50 [1]: 13.3 µM (active)

Cc1c(NC(=O)c2cc(-c3cccs3)nc3ccccc23)c(=O)n(-c2ccccc2)n1C
AC50 [4]: > 350 µM (inactive)

O=C(O)c1cccc(-n2cccc2C=C2C(=O)c3ccccc3C2=O)c1
EC50 [5]: 37 µM (active) | EC50 [6]: 48.5 µM (active)

Cc1cccc2nc(CSc3ccc(Cl)cc3)cn12
EC50 [1]: 4.22 µM (active)

COc1cccc(/C=C2/C(=O)NN(c3ccc(C)c(C)c3)C2=O)c1
IC50 [7]: > 100 µM (active)

O=C(/C=C/c1cccc(Cl)c1)c1ccc([N+](=O)[O-])o1
EC50 [8]: 4.56 µM (inconclusive) | EC50 [9]: 3.18 µM (active) | EC50 [10]: > 150 µM (inconclusive) | EC50 [11]: 3.36 µM (active) | EC50 [12]: 9.18 µM (inconclusive) | IC50 [13]: 40.9 µM (active) | EC50 [14]: 2.5 µM (inconclusive) | EC50 [15]: 6.98 µM (active) | AC50 [16]: 1.28 µM (active) | AC50 [17]: 2.31 µM (active)

Oc1cc(Cl)c(Cl)c(Cl)c1Cl
AC50 [16]: 2.06 µM (active) | AC50 [18]: 12.6 µM (inconclusive)

N=c1c(S(=O)(=O)c2ccccc2)cc2c(=O)n3ccccc3nc2n1Cc1cccnc1
EC50 [5]: 68.1 µM (inconclusive) | EC50 [6]: 6.91 µM (inconclusive)

Brc1cc2c(cc1C1Nc3ccccc3C3C=CCC31)OCO2 (stereo not drawn)
EC50 [5]: > 300 µM (not active) | EC50 [9]: 7.1 µM (active) | EC50 [6]: > 300 µM (not active) | EC50 [11]: 2.55 µM (active) | EC50 [15]: 25.4 µM (active)

N#Cc1c(SC(C(=O)O)c2ccccc2)nc2c(c1-c1cccs1)CCCC2 (stereo not drawn)
IC50 [7]: 39.2 µM (active)

CCCSc1nc(N)nc(-c2cccs2)c1C#N
EC50 [1]: 2.66 µM (active)

Cc1cc(C)c(N2C(=O)NC(=O)/C(=C\NNC(=O)c3ccncc3)C2=O)c(C)c1
EC50 [5]: 64.7 µM (active) | EC50 [6]: 36.6 µM (active)

COc1ccc(CN2CCCC(C(=O)c3sccc3C)C2)cc1O (stereo not drawn)
EC50 [1]: 11.9 µM (active)

CC1(C)C[C@@H]2C(=O)CCC3O[C@@]3(C)CCC21 (stereo partly drawn)
AC50 [18]: 12.6 µM (inconclusive)

O=C(NNS(=O)(=O)c1ccc([N+](=O)[O-])cc1)C(=O)Nc1cccc(C(=O)O)c1
EC50 [5]: 9.52 µM (inconclusive) | EC50 [6]: 12.3 µM (inconclusive)

NC1=NC(=O)/C(=C/c2ccc(-c3cc([N+](=O)[O-])ccc3Cl)o2)S1
IC50 [2]: > 100 µM (not active)

Nc1c2c(nc3ccccc13)CCC2
EC50 [1]: 4.22 µM (active)

CCCn1c(-c2ccc(F)cc2)nc2c(NCCN(CC)CC)nc(C)nc21
AC50 [18]: 15.8 µM (inconclusive)

O=C1C(O)=CC(=C(c2ccccc2)c2ccccc2)c2ccccc21
CC50 [19]: > 40 µM (active) | IC50 [7]: > 100 µM (active)

CC1=CC(=O)C(Sc2ccc(C)cc2)=CC1=O
IC50 [7]: 14.5 µM (active) | IC50 [20]: > 66 µM (inactive) | IC50 [21]: > 66 µM (inactive)

C/C(=N\c1ccc(Br)cc1)c1sc2ccccc2c1O
EC50 [5]: > 300 µM (not active) | EC50 [6]: > 300 µM (inconclusive) | EC50 [22]: 4.08 µM (active) | EC50 [23]: > 60 µM (not active)

Cc1cccc(/C=N/NC(=O)CNc2cccc3ccccc23)n1
AC50 [4]: 107 µM (active)

COC1=CC(=O)C(C(=O)c2ccccc2)=CC1=O [2-BENZOYL-5-METHOXYBENZOQUINONE]
AC50 [18]: 10 µM (inconclusive)

COc1cc(O)cc(OC)c1OC [ANTIAROL]
AC50 [18]: 31.6 µM (inconclusive)

O=C(CC(=O)c1ccccc1)c1ccccc1 [DIBENZOYLMETHANE]
AC50 [18]: 12.6 µM (inconclusive)
